# Test results reported in patent US7687489B2, “Agent for treatment of cerebral ischemic diseases” (Ono Pharmaceutical Co., Ltd., priority 2001, dated 2010).
# How the values were obtained:
# [1] = system: thrombin-induced focal cerebral ischemic model; test: Thrombin-induced focal cerebral ischemic model: survival and neurological symptom score; type: in vivo, male Wistar rats
# Description: Twenty male Wistar rats (8-weeks age) were used as one group. The rats were anesthetized with halothane, followed by incision and then subjected to carotid artery shunting. A polyethylene catheter containing thrombin (10 international units) was catheterized into the carotid artery, and […] of blood was sucked and reserved in the catheter for 10 minutes. Then, thrombus formed in the catheter was infused into the carotid artery together with thrombin (J. Cereb. Blood Flow Metab., 17, 123 (1997)).
# The neurological symptoms of said rats were scored according to the method as described in Brain Res., 452, 323 (1988). The evaluation of score was carried out at 6 hours, 24 hours, 48 hours and 72 hours after infusion of thrombin, and the scores were accumulated. The survival period was determined by monitoring surviving or dead rats at intervals of one hour for the first 72 hours after the infusion of thrombin.
# From forty minutes after thrombin infusion, t-PA (Activacin 100,000 international units, product of Kyowa Hakko Kogyo Co., Ltd.) was continuously administered in an amount of 33 μL/min to the anesthetized rats for 15 minutes. (R)-2-propyloctanoic acid (hereinafter referred to as compound A) in an amount of 10 mg/mL/kg was administered through tail vein of the rats three times at 6 hours, 24 hours and 48 hours after the infusion of thrombin.
# dogs = conditions: dog, in vivo, 100 mg/kg
# Excerpt: The toxicity of the astrocyte function-improving agent of the present invention is sufficiently very low and has been confirmed to be safe enough for pharmaceutical use.
# [2] = accumulated score, rats surviving 72 h, average ± standard error
smiles,measurement,setting,value
"CCCCCC[C@@H](CCC)C(=O)O [Compound A, (R)-2-propyloctanoic acid]",Survival rate after 72 hours,"[1]; 72 hours after thrombin infusion, 20 rats per group, * p<0.05 vs control (Log-rank test)",60.0%*^)
same,No. of surviving rats,"[1]; 72 hours after thrombin infusion, 20 rats per group, t-PA infused from 40 min for 15 min, compound A 10 mg/mL/kg i.v. at 6, 24, 48 h",12
same,"Neurological symptom score, 0 to 6 hours",[1]; [2],3.4 ± 0.1
same,"Neurological symptom score, 0 to 24 hours",[1]; [2],3.3 ± 0.1
same,"Neurological symptom score, 0 to 48 hours",[1]; [2],3.3 ± 0.1
same,"Neurological symptom score, 0 to 72 hours",[1]; [2],3.2 ± 0.2
same,Death after single intravenous administration,dogs,no death was observed
